Measured values from PubChem BioAssay (NCI).
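Compound exposure: 48 hours, 5 concentrations, 96-well plates. TGI: total growth inhibition.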

Assays:
Assay in all cases: growth of human tumour cells (NCI), 48 h
A549 NSCLC = system: A549 NSCLC
M19-MEL melanoma = system: M19-MEL melanoma
HOP-18 NSCLC = system: HOP-18 NSCLC
SNB-78 CNS = system: SNB-78 CNS
SNB-19 CNS = system: SNB-19 CNS
HCC-2998 colon = system: HCC-2998 colon
XF 498 CNS = system: XF 498 CNS
SNB-75 CNS = system: SNB-75 CNS
SR leukemia = system: SR leukemia
IGROV1 ovarian = system: IGROV1 ovarian
HCT-116 colon = system: HCT-116 colon
OVCAR-4 ovarian = system: OVCAR-4 ovarian

| SMILES | TGI (A549 NSCLC) | TGI (M19-MEL melanoma) | TGI (HOP-18 NSCLC) | TGI (SNB-78 CNS) | TGI (SNB-19 CNS) | TGI (HCC-2998 colon) | TGI (XF 498 CNS) | TGI (SNB-75 CNS) | TGI (SR leukemia) | TGI (IGROV1 ovarian) | TGI (HCT-116 colon) | TGI (OVCAR-4 ovarian) |
| --- | --- | --- | --- | --- | --- | --- | --- | --- | --- | --- | --- | --- |
| CN1CC[C@]2(C)c3cc(O)ccc3CC3CCCC1C32C (some centres undefined) | > 100 µM | > 100 µM | > 100 µM | > 100 µM | > 100 µM | > 100 µM | > 100 µM | > 100 µM | > 100 µM | > 100 µM | > 100 µM | – |
| CN(C)CCNC(=O)c1cccc2[nH]c(-c3cccnc3)nc12 | 43.5 µM | 39.8 µM | 84 µM | > 100 µM | > 100 µM | 43.4 µM | – | 73.3 µM | – | > 100 µM | 42.8 µM | 88.9 µM |
| COC(=O)[C@]12CC=C3O[C@@H]4OC5(CCCCC5)O[C@@H]4C3[C@@H]1C(=O)CCC2=O (some centres undefined) | > 100 µM | – | > 100 µM | > 100 µM | > 100 µM | > 100 µM | > 100 µM | > 100 µM | – | > 100 µM | > 100 µM | > 100 µM |
| CN(C)C=[N+]=[N-] | > 100 µM | > 100 µM | > 100 µM | > 100 µM | > 100 µM | > 100 µM | > 100 µM | > 100 µM | > 100 µM | > 100 µM | > 100 µM | > 100 µM |
| CCCC/C=C1\CCC(C)(CN(C)C)C1=O (centres undefined) | > 100 µM | 29 µM | > 100 µM | > 100 µM | – | > 100 µM | – | – | > 100 µM | > 100 µM | > 100 µM | > 100 µM |
| COc1ccccc1C1c2cc3c(cc2OC(O)(CO)C1C(=O)O)OCO3 (centres undefined) (tested in a mixture with another compound) | > 100 µM | > 100 µM | > 100 µM | > 100 µM | – | > 100 µM | – | > 100 µM | > 100 µM | > 100 µM | > 100 µM | > 100 µM |
| C=C1C(=O)OC2C=C(CCC(C)=O)C(C)C(OC(C)=O)CC12 (centres undefined) | 55.4 µM | 64.7 µM | 24.1 µM | 27.4 µM | 37.2 µM | 21.5 µM | 26.1 µM | 24.4 µM | 52.9 µM | 43.9 µM | 21.2 µM | 27.7 µM |
| Cc1c(C(=O)CC(=O)C(=O)Nc2ccc(Cl)cc2)[n+](=O)c2ccccc2n1[O-] | > 100 µM | > 100 µM | > 100 µM | > 100 µM | > 100 µM | – | > 100 µM | > 100 µM | – | > 100 µM | > 100 µM | > 100 µM |
| O=C(c1ccccc1)[C@@H]1C[C@H](Sc2ccccc2)c2cc(Cl)ccc2N1 | > 100 µM | > 100 µM | > 100 µM | > 100 µM | > 100 µM | 51.8 µM | 46.9 µM | 58.7 µM | > 100 µM | > 100 µM | 68.4 µM | > 100 µM |
| c1ccc2cc3[s+]snc3cc2c1 | > 100 µM | > 100 µM | > 100 µM | > 100 µM | > 100 µM | > 100 µM | > 100 µM | > 100 µM | > 100 µM | > 100 µM | > 100 µM | > 100 µM |
| O=C(O)CCC(NC(=O)c1ccccc1)C(=O)O (centres undefined) | > 100 µM | – | > 100 µM | > 100 µM | > 100 µM | > 100 µM | > 100 µM | > 100 µM | > 100 µM | > 100 µM | > 100 µM | > 100 µM |
| CC(C)(CN1CCCCC1)C(=O)/C=C/c1ccc(Cl)cc1 | 14.4 µM | 23.4 µM | 23.1 µM | 11.8 µM | 17 µM | 26.3 µM | – | 11.4 µM | 7.15 µM | – | 13 µM | 16 µM |
